Patent publication EP1764134B1, “Purine derivatives linked to arylpiperazines” (Spectrum Pharmaceuticals, Inc., priority 2001, dated 2003)

Legend:
mice = assay: Conditioned avoidance testing (CAR, active avoidance); format: in vivo; conditions: S.C. 20 minutes before the test session
Method: Training: Consists of 20 trials with variable inter-trial intervals (Trained to 80% Avoidance Criteria). After a one-minute acclimation period, the house light and an acoustic 90dB tone (conditioned stimuli) are presented. A response (crossing to dark compartment) within 5 seconds ends the trial and trial is recorded as avoidance response (CAR). […] To avoid shock, animals learn to move from the lighted side of the chamber to the dark side when the cue is presented (avoidance) or moved when the shock is administered (escape).Testing: Vehicle or test compounds are administered S.C. 20 minutes before the test session. (Checking for disruption of cognition and attention) Table 3. Conditioned Avoidance Responding

male C-57 mice = assay: Pre-pulse inhibition testing: reversal of PCP disruption of pre-pulse inhibition of acoustic startle; format: in vivo; conditions: route not given (method: PO or SC); 20 minutes prior to PCP 5mg/kg IP

Structure (SMILES) | PERMEABILITY (Caco-2 cells) | Conditioned Avoidance Responding (overall effect / effect on escape or avoidance, in words) (mice) | PCP Disruption of Pre-pulse Inhibition (result in words) (male C-57 mice) | Conditioned Avoidance Responding: effect on avoidance (in words) (mice) | Conditioned Avoidance Responding: effect on latency (in words) (mice)
Cc1nc2n(c(=O)c1CCN1CCC(c3noc4cc(F)ccc34)CC1)CCCC2 [Risperidone, risperidone, reference compound] |  |  |  | Significant reduction in avoidance | Significant increase in latency
O=C1CCCc2c1ccn2CCN1CCN(c2cccc(C(F)(F)F)c2)CC1 [NEO-359, 1-{2-[4-(3-Trifluoromethylphenyl)piperazin-1-yl]ethyl}-1,5,6,7-tetrahydroindol-4-one] | High | No effect on escape or avoidance | No reversal |  | Significant decrease in latency
O=C1CCCc2c1ccn2CCCN1CCN(c2cccc(C(F)(F)F)c2)CC1 [NEO-356, 1-{3-[4-(3-Trifluoromethylphenyl)piperazin-1-yl]propyl}-1,5,6,7-tetrahydroindo1-4-one] | High | No effect | No reversal |  | 
O=C1CCCc2c1ccn2CCCN1CCN(c2cccc(Cl)c2)CC1 [NEO-363, 1-{3-[4-(3-Chlorophenyl)piperazine-1-yl]propyl}-1,5,6,7-tetrahydroindol-4-one] | High | No effect |  |  | 

Second part, led by results:

PERMEABILITY (Caco-2 cells) | Structure (SMILES) | Conditioned Avoidance Responding (overall effect / effect on escape or avoidance, in words) (mice) | PCP Disruption of Pre-pulse Inhibition (result in words) (male C-57 mice) | Conditioned Avoidance Responding: effect on avoidance (in words) (mice) | Conditioned Avoidance Responding: effect on latency (in words) (mice)
High | O=C1CCCc2c1ccn2CCCN1CCN(c2ncccn2)CC1 [NEO-381, 1-{3-[4-(2-Pyrimidyl)piperazine-1-yl]propyl}-1,5,6,7-tetrahydroindol-4-one] | No effect | No reversal |  | 
High | COc1ccccc1N1CCN(CCCn2ccc3c2CCCC3=O)CC1 [NEO-370, 1-{3-[4-(2-Methoxyphenyl)piperazine-1-yl]propyl}-1,5,6,7-tetrahydroindol-4-one] |  |  | Significant reduction in avoidance | Significant increase in latency
High | COc1ccccc1N1CCN(CCn2ccc3c2CCCC3=O)CC1 [NEO-377, 1-{2-[4-(2-Methoxyphenyl)-piperazin-1-yl]-ethyl}-1,5,6,7-tetrahydro-indol-4-one] |  |  | Significant reduction in avoidance | Significant increase in latency
High | O=C1CCCc2c1ccn2CCN1CCN(c2cccc(Cl)c2)CC1 [NEO-376, 1-{2-[4-(3-Chloro-phenyl)-piperazin-1-yl]-ethyl}-1,5,6,7-tetrahydro-indol-4-one] | No effect on escape or avoidance |  |  | significant increase in latency
High | O=C1CCCc2c1ccn2CCCCN1CCN(c2cccc(C(F)(F)F)c2)CC1 [NEO-392, 1-{4-[4-(3-Trifluoromethylphenyl)piperazin-1-yl]butyl}-1,5,6,7-tetrahydroindol-4-one] |  |  | Significant reduction in avoidance | Significant increase in latency
High | CC(C)NCC(O)COc1cccc2ccccc12 (stereo not drawn) [Propranolol, reference compound] |  |  |  | 
